Laboratory results: patent US10975082B2, “Inhibitor of FLT3 kinase and use thereof” (PRECEDO PHARMACEUTICALS CO., LTD, priority 2016, dated 2021)

How the values were obtained:
Assay type in all cases: cell-based
BaF3-TEL-cKIT = test: Cell proliferation, Cell Titer-Glo, GI50; conditions: Mus musculus, 72 hours
Method: (§1) Compounds of the invention were evaluated for their inhibitory effects on proliferation of cancer cells as well as the selectivity thereof by testing their effects on growth of cancer cells (Table 2).
(§2) Mouse BaF3-FLT3[ITD] (stably expressing FLT3[ITD] mutant activated kinase), mouse tel-BaF3-FLT3-D835Y (stably expressing FLT3[D835Y]mutant activated kinase), mouse tel-BaF3-BMX (stably expressing BMX kinase), mouse tel-FLT3-BaF3 (stably expressing FLT3 kinase), mouse BaF3-FLT3-ITD-D835Y (stably expressing FLT3[ITD+D835Y]mutant activated kinase), mouse BaF3-FLT3-ITD-F691L (stably expressing FLT3[ITD+F691L]mutant activated kinase), mouse tel-cKIT-BaF3 (stably expressing cKIT kinase), mouse BaF3-tel-cKit-N882K (stably expressing cKIT-N882K mutant activated kinase), mouse BaF3-tel-cKit-D816V (stably expressing cKIT-D816V mutant activated kinase), mouse BaF3-tel-cKit-T670I (stably expressing cKIT-T670I mutant activated kinase), mouse TPR-MET-BaF3 (stably expressing MET kinase), mouse tel-BaF3-EGFR (stably expressing EGFR kinase), mouse BaF3-FL-EGFR-L858R (stably expressing EGFR[L858R]mutant activated kinase), mouse tel-BaF3-BLK (stably expressing BLK kinase), mouse tel-JAK1-BaF3 (stably expressing JAK1 kinase) and the like were also used (see Table 2 for details). The above cell lines were all constructed by our laboratory according to the following method: the kinase region sequences of human FLT3/ITD, FLT3 D835Y, BMX, FLT3, FLT3[ITD+D835Y], FLT3[ITD+F691L], cKIT, cKIT [N882K], cKIT [D816V], cKIT [T670I], MET, EGFR, EGFR [L858R], BLK, JAK1, FLT3[K663Q], FLT3[D835V], FLT3[D835H], PDGFRa, PEGFRb, VEGFR2, JAK2, JAK3, ABL were amplified by PCR, and inserted into MSCV-Puro vectors with N-terminal TEL or TPR fragments (purchased from Clontech), respectively. The vectors were stably transfected into mouse BaF3 cells (purchased from ATCC) by means of retrovirus, and the growth factor IL-3 were removed, eventually obtaining cell lines that are transferred protein (FLT3/ITD, FLT3 D835Y, BMX, FLT3, FLT3[ITD D835Y], FLT3[ITD+F691L], cKIT, cKIT [N882K], cKIT [D816V], cKIT [T670I], MET, EGFR, EGFR [L858R], BLK, JAK1, FLT3[K663Q], FLT3[D835V], FLT3[D835H], PDGFRa, PEGFRb, VEGFR2, JAK2, JAK3, ABL)-dependent.
(§3) Then the number of viable cells was determined by quantification of ATP in living cells using Cell Titer-Glo® (Promega, the USA) Luminescent Cell Viability Assay kit and thereby GI50 was calculated.

BaF3-TEL-FLT3 [K663Q] = test: Cell proliferation, Cell Titer-Glo, GI50; conditions: Mus musculus, 72 hours
Method: as §1, §2, §3

BaF3-FLT3 [ITD] = test: Cell proliferation, Cell Titer-Glo, GI50; conditions: Mus musculus, Ba/F3 FLT3-ITD, 72 hours
Method: as §1, §2, §3

BaF3-TEL-FLT3 [D835Y] = test: Cell proliferation, Cell Titer-Glo, GI50; conditions: Mus musculus, 72 hours
Method: as §1, §2, §3

BaF3-TEL-FLT3 = test: Cell proliferation, Cell Titer-Glo, GI50; conditions: Mus musculus; BaF3-TEL-FLT3, 72 hours
Method: as §1, §2, §3

U937 = test: Cancer cell proliferation, Cell Titer-Glo, GI50; conditions: Homo sapiens, U-937; U937, 72 hours
Method: as §1
(§4) In this example the following cells were selected: human acute myeloid leukemia cells MV-4-11 (expressing FLT3[ITD] mutant gene), human acute myeloid leukemia cells MOLM-13 (expressing FLT3[ITD] mutant gene and wild-type FLT3 gene), human acute myeloid leukemia cells MOLM-14 (expressing FLT3[ITD] mutant gene and wild-type FLT3 gene), human acute myeloid leukemia cells OCI-AML3 (expressing FLT3[A680V] mutant gene), human acute myeloid leukemia cells U937 (expressing wild-type FLT3 gene), and mouse pro-B cells BaF3, and the above cells were purchased from ATCC.
as §3

MV-4-11 = test: Cancer cell proliferation, Cell Titer-Glo, GI50; conditions: Homo sapiens, MV4-11; MV-4-11, 72 hours
Method: as §1, §4, §3

MOLM-14 = test: Cancer cell proliferation, Cell Titer-Glo, GI50; conditions: Homo sapiens; MOLM-14, 72 hours
Method: as §1, §4, §3

BaF3 = test: Cell proliferation, Cell Titer-Glo, GI50; conditions: Mus musculus; BaF3, 72 hours
Method: as §1, §4, §3

BaF3-TEL-cKit [N882K] = test: Cell proliferation, Cell Titer-Glo, GI50; conditions: Mus musculus, 72 hours
Method: as §1, §2, §3

BaF3-FLT3 [ITD + D835Y] = test: Cell proliferation, Cell Titer-Glo, GI50; conditions: Mus musculus, Ba/F3 FLT3-ITD, 72 hours
Method: as §1, §2, §3

BaF3-TEL-cKit [D816V] = test: Cell proliferation, Cell Titer-Glo, GI50; conditions: Mus musculus, 72 hours
Method: as §1, §2, §3

BaF3-TEL-FLT3 [D835V] = test: Cell proliferation, Cell Titer-Glo, GI50; conditions: Mus musculus, 72 hours
Method: as §1, §2, §3

SMILES	GI50 (BaF3-TEL-cKIT) [nM]	GI50 (BaF3-TEL-FLT3 [K663Q]) [nM]	GI50 (BaF3-FLT3 [ITD]) [nM]	GI50 (BaF3-TEL-FLT3 [D835Y]) [nM]	GI50 (BaF3-TEL-FLT3) [nM]	GI50 (U937) [nM]	GI50 (MV-4-11) [nM]	GI50 (MOLM-14) [nM]	GI50 (BaF3) [nM]	GI50 (BaF3-TEL-cKit [N882K]) [nM]	GI50 (BaF3-FLT3 [ITD + D835Y]) [nM]	GI50 (BaF3-TEL-cKit [D816V]) [nM]	GI50 (BaF3-TEL-FLT3 [D835V]) [nM]
CC(C)(C)c1cc(NC(=O)Nc2ccc(-n3nc(-c4ccc(N5CCOCC5)nc4)c4c(N)ncnc43)cc2)no1 [Compound 28, 1-(4-(4-amino-3-(6-morpholinopyridin-3-yl)-1H-pyrazolo[3,4-d]pyrimidin-1-yl)phenyl)-3-(5-(tert-butyl)isoxazol-3-yl)urea]	41	> 10000	2	3	4	> 10000	1	2	6900				
CC(C)(C)c1cc(NC(=O)Nc2ccc(-n3nc(-c4cccnc4)c4c(N)ncnc43)cc2)no1 [Compound 26, 1-(4-(4-amino-3-(pyridin-3-yl)-1H-pyrazolo[3,4-d]pyrimidin-1-yl)phenyl)-3-(5-(tert-butyl)isoxazol-3-yl)urea]	38	> 10000	0.7	610	1	> 10000	< 0.3	1	> 10000	29	610	7600	20
CC(C)(C)c1cc(NC(=O)Nc2ccc(-n3nc(-c4ccc(NS(C)(=O)=O)cc4)c4c(N)ncnc43)cc2)no1 [Compound 27]	120	> 10000	1	600	2	> 10000	0.6	1	> 10000	51	600	> 10000	22
CC(C)(C)c1cc(NC(=O)Nc2ccc(-n3nc(-c4ccc(CN5CCOCC5)cc4)c4c(N)ncnc43)cc2)no1 [Compound 23, 1-(4-(4-amino-3-(4-(morpholinomethyl)phenyl)-1H-pyrazolo[3,4-d]pyrimidin-1-yl)phenyl)-3-(5-(tert-butyl)isoxazol-3-yl)urea]	12	5400		1	< 0.3	4100	< 0.3	< 0.3	5900				
Nc1ncnc2c1c(-c1ccc(OCCN3CCOCC3)cc1)nn2-c1ccc(NC(=O)Nc2ccc(Cl)c(C(F)(F)F)c2)cc1 [Compound 12, 1-(4-(4-amino-3-(4-(2-morpholinoethoxy)phenyl)-1H-pyrazolo[3,4-d]pyrimidin-1-yl)phenyl)-3-(4-chloro-3-(trifluoromethyl)phenyl)urea]	140	5400	3	1600	12	2400	3	3	3000	96	1600	4000	210
